# Data reported in the supplement of paper PMC8967900.
# How the values were obtained:
# Experiment in all cases: selective drug sensitivity score (sDSS, relative to normal bone marrow) (sDSS (score)); higher = more potent and effective on the cell line relative to normal bone marrow cells
# Conditions in all cases: 72 h
# [1] = tested on: JURKAT
# [2] = tested on: MOLT-14
# [3] = tested on: 380
# 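Also: ALL cell lines in 384-well plates, five doses spanning 10,000-fold, each plate scaled between vehicle and 100 µmol/L benzalkonium chloride controls, sDSS an adapted area-under-curve metric.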
SMILES,selective drug sensitivity score [1],selective drug sensitivity score [2],selective drug sensitivity score [3]
C=CC(=O)N1CC/C(=C\c2ccc(F)c([N+](=O)[O-])c2)C(=O)/C(=C/c2ccc(F)c([N+](=O)[O-])c2)C1 [VLX1570] (top concentration 10000 nM),-8.52,-0.92,6.88
FC(F)(F)c1ccc(CNc2ccc(Cc3c[nH]c4ncc(Cl)cc34)cn2)cn1 [Pexidartinib] (top concentration 10000 nM),1.48,-2.02,-2.22
CNC(=O)c1cccc(-c2ccc3c(N4CCOC[C@@H]4C)nc(N4CCOC[C@@H]4C)nc3n2)c1 [Vistusertib] (top concentration 10000 nM),2.22,2.12,17.1
CCn1c(-c2nonc2N)nc2c(C#CC(C)(C)O)ncc(OC[C@H]3CCCNC3)c21 (top concentration 10000 nM),7.48,1.68,8.58
CC(C)[C@H]1C(=O)N[C@@H](CCCNC(=N)N)C(=O)NCC(=O)N[C@@H](CC(=O)O)C(=O)N[C@H](Cc2ccccc2)C(=O)N1C [Cilengitide] (top concentration 10000 nM),0,0,11.3
CC(C)(C)c1nc(-c2cccc(NS(=O)(=O)c3c(F)cccc3F)c2F)c(-c2ccnc(N)n2)s1 [Dabrafenib] (top concentration 2500 nM),1.08,1.48,-1.52
CC(=O)c1cc2c(o1)C(=O)c1ccccc1C2=O [Napabucasin] (top concentration 20000 nM),0.52,-0.98,-2.08
COc1cc2c(cc1-c1c(C)noc1C)ncc1[nH]c(=O)n([C@H](C)c3ccccn3)c12 [I-BET151] (top concentration 10000 nM),0.36,0.46,-7.44
CC(=O)c1c(C)c2cnc(Nc3ccc(N4CCNCC4)cn3)nc2n(C2CCCC2)c1=O [Palbociclib] (top concentration 10000 nM),1.58,2.48,-0.12
O=C(/C=C/c1cccc(S(=O)(=O)Nc2ccccc2)c1)NO [Belinostat] (top concentration 10000 nM),7.6,12.2,16.2
Nc1ccn([C@@H]2O[C@H](CO)[C@@H](O)C2(F)F)c(=O)n1 [Gemcitabine] (top concentration 1000 nM),9.16,14.3,23.5
Cc1nc(Nc2n[nH]c3c2CN(C(=O)N[C@H](CN(C)C)c2ccccc2)C3(C)C)c2sccc2n1 (top concentration 10000 nM),0.68,7.18,22.2
Cn1cc(-c2[nH]c3cc(NC(=O)[C@H](N)C4CCCCC4)cc4c3c2C=NNC4=O)cn1 (top concentration 10000 nM),3.48,2.68,8.68
CN(C(=O)c1ccc(F)cc1C(F)(F)F)C1CCN(c2nnc(-c3ccnn3C)c3ccccc23)CC1 [Taladegib] (top concentration 10000 nM),2.78,-1.12,4.08
COCCNCc1ccc(-c2cc3nccc(Oc4ccc(NC(=O)C5(C(=O)Nc6ccc(F)cc6)CC5)cc4F)c3s2)nc1 [Sitravatinib] (top concentration 2500 nM),0.38,1.08,2.18
CO[C@@H]1[C@H](N(C)C(=O)c2ccccc2)C[C@H]2O[C@]1(C)n1c3ccccc3c3c4c(c5c6ccccc6n2c5c31)C(=O)NC4 [Midostaurin] (top concentration 10000 nM),-1.34,11.6,10.1
CO[C@H]1C[C@@H]2CC[C@@H](C)[C@@](O)(O2)C(=O)C(=O)N2CCCC[C@H]2C(=O)O[C@H]([C@H](C)C[C@@H]2CC[C@@H](O)[C@H](OC)C2)CC(=O)[C@H](C)/C=C(\C)[C@@H](O)[C@@H](OC)C(=O)[C@H](C)C[C@H](C)/C=C/C=C/C=C/1C [Sirolimus] (top concentration 100 nM),-1.96,-2.96,17.4
COC12C(COC(N)=O)C3=C(C(=O)C(C)=C(N)C3=O)N1CC1NC12 (stereo in doubt) [Mitomycin_C] (top concentration 10000 nM),-2.86,-2.86,-1.36
COCC[n+]1c2c(n(Cc3cnccn3)c1C)C(=O)c1ccccc1C2=O [Sepantronium_bromide] (top concentration 10000 nM),14.2,12.5,22
CCNC(=O)C[C@@H]1N=C(c2ccc(Cl)cc2)c2cc(OC)ccc2-n2c(C)nnc21 [Molibresib] (top concentration 10000 nM),-0.6,-2.1,-5.5
NC(=O)/C(=C/n1cnc(-c2cc(C(F)(F)F)cc(C(F)(F)F)c2)n1)c1cncnc1 [Eltanexor] (top concentration 10000 nM),9.76,15.4,13.6
C#Cc1cccc(Nc2ncnc3cc(OCCOC)c(OCCOC)cc23)c1 [Erlotinib] (top concentration 10000 nM),2.26,4.06,2.36
Cn1ncc(Cl)c1-c1cc(C(=O)N[C@H](CN)Cc2ccc(F)c(F)c2)oc1Cl [Uprosertib] (top concentration 10000 nM),5.9,1.1,0.6
CCCCCCCCCCCCCCCCOP(=O)([O-])OCC[N+](C)(C)C [Miltefosine] (top concentration 100000 nM),-1.14,0.76,-1.54
O=C(Nc1cccc(NC(=O)c2cccc(O)c2O)c1)c1cccc(O)c1O [MST-312] (top concentration 10000 nM),12.5,5.8,6
CCS(=O)(=O)N1CCN(c2ccc(Nc3ncc(C(N)=O)c(NC4CC4)n3)cc2)CC1 [Cerdulatinib] (top concentration 10000 nM),-8.66,-3.16,-11.9
CN(C)C1CCN(C(=O)c2ccc(NC(=O)Nc3ccc(-c4nc(N5CCOCC5)nc(N5CCOCC5)n4)cc3)cc2)CC1 [Gedatolisib] (top concentration 1000 nM),2.66,-3.24,14.8
Cc1[nH]nc(C(F)(F)F)c1Cc1sc2c(c1C(=O)N1C[C@](C)(O)CO1)c(=O)n(C)c(=O)n2C(C)C [AZD3965] (top concentration 1000 nM),0,0,4.2
COc1cc(Nc2ncc3c(n2)-c2ccc(Cl)cc2C(c2c(F)cccc2OC)=NC3)ccc1C(=O)O [Alisertib] (top concentration 10000 nM),11.3,21,26.4
Nc1ccccc1NC(=O)c1ccc(CNc2nccc(-c3cccnc3)n2)cc1 [Mocetinostat] (top concentration 10000 nM),6.74,9.14,15.5
